Results: article PMC7383607, “Kinetic and structural studies of Trypanosoma and Leishmania phosphofructokinases show evolutionary divergence and identify AMP as a switch regulating glycolysis versus gluconeogenesis” (The Febs Journal, 2020)

T1: LiPFK (Leishmania infantum phosphofructokinase) (Leishmania infantum, UniProt A4I4W5)
T1 construct: gene pfk; recombinant, E. coli, purified; N-terminal His6 tag (given for SPR); glycosomal homotetramer
T1 sequence (A4I4W5 1-486): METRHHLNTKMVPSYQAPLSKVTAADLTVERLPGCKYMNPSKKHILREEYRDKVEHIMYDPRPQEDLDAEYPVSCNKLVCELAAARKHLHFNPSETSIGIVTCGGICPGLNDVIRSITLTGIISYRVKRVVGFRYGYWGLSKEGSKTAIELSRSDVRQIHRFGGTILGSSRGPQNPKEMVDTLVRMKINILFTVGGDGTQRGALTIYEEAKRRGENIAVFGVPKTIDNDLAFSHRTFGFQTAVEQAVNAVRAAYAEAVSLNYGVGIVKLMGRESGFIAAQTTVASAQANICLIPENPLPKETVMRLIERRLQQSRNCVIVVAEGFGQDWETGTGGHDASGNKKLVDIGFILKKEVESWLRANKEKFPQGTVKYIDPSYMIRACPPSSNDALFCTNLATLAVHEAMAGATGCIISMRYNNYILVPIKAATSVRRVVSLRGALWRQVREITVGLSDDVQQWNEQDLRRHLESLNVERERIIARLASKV

T2: TcPFK (Trypanosoma cruzi phosphofructokinase) (Trypanosoma cruzi, UniProt Q4E657)
T2 construct: gene pfk; recombinant, E. coli, purified; N-terminal His6 tag (given for SPR); glycosomal homotetramer
T2 sequence (Q4E657 1-485): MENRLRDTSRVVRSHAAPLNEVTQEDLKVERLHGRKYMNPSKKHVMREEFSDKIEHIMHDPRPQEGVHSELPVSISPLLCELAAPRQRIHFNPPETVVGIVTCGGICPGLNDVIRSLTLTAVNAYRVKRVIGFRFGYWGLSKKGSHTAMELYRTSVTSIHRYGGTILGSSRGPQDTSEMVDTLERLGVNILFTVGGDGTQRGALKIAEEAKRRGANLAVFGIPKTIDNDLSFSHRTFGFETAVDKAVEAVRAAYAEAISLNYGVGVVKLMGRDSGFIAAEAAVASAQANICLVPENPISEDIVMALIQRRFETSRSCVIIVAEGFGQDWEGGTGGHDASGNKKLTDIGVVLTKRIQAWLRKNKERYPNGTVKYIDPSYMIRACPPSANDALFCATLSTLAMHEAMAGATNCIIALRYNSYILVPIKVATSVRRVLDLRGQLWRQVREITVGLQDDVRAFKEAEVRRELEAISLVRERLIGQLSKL

T3: TbPFK (Trypanosoma brucei phosphofructokinase) (Trypanosoma brucei, UniProt O15648)
T3 construct: gene pfk; recombinant, E. coli, purified; N-terminal His6 tag (for SPR and reaction order tests); tetramer of 53-kDa subunits
T3 sequence (O15648 1-487): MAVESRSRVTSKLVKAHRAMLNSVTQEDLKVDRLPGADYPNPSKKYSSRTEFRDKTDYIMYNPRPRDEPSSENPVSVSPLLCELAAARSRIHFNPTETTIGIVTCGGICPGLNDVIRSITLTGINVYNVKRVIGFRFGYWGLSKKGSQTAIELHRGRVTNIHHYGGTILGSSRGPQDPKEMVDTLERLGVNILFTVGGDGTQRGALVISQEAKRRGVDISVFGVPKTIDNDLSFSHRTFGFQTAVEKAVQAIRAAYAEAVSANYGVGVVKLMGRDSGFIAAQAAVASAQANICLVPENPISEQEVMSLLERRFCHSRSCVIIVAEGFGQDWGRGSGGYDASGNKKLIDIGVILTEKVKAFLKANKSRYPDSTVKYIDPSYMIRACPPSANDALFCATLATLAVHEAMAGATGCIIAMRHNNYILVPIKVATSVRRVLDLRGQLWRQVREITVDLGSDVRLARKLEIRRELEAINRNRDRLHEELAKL

B1: TcPFK (Trypanosoma cruzi phosphofructokinase) (Trypanosoma cruzi strain CL Brener) (protein)
chain: MENRLRDTSRVVRSHAAPLNEVTQEDLKVERLHGRKYMNPSKKHVMREEFSDKIEHIMHDPRPQEGVHSELPVSISPLLCELAAPRQRIHFNPPETVVGIVTCGGICPGLNDVIRSLTLTAVNAYRVKRVIGFRFGYWGLSKKGSHTAMELYRTSVTSIHRYGGTILGSSRGPQDTSEMVDTLERLGVNILFTVGGDGTQRGALKIAEEAKRRGANLAVFGIPKTIDNDLSFSHRTFGFETAVDKAVEAVRAAYAEAISLNYGVGVVKLMGRDSGFIAAEAAVASAQANICLVPENPISEDIVMALIQRRFETSRSCVIIVAEGFGQDWEGGTGGHDASGNKKLTDIGVVLTKRIQAWLRKNKERYPNGTVKYIDPSYMIRACPPSANDALFCATLSTLAMHEAMAGATNCIIALRYNSYILVPIKVATSVRRVLDLRGQLWRQVREITVGLQDDVRAFKEAEVRRELEAISLVRERLIGQLSKL
notes: recombinant, E. coli, purified; N-terminal His6 tag (given for SPR); glycosomal homotetramer
B2: Trypanosoma brucei phosphofructokinase (enzyme)
chain: MAVESRSRVTSKLVKAHRAMLNSVTQEDLKVDRLPGADYPNPSKKYSSRTEFRDKTDYIMYNPRPRDEPSSENPVSVSPLLCELAAARSRIHFNPTETTIGIVTCGGICPGLNDVIRSITLTGINVYNVKRVIGFRFGYWGLSKKGSQTAIELHRGRVTNIHHYGGTILGSSRGPQDPKEMVDTLERLGVNILFTVGGDGTQRGALVISQEAKRRGVDISVFGVPKTIDNDLSFSHRTFGFQTAVEKAVQAIRAAYAEAVSANYGVGVVKLMGRDSGFIAAQAAVASAQANICLVPENPISEQEVMSLLERRFCHSRSCVIIVAEGFGQDWGRGSGGYDASGNKKLIDIGVILTEKVKAFLKANKSRYPDSTVKYIDPSYMIRACPPSANDALFCATLATLAVHEAMAGATGCIIAMRHNNYILVPIKVATSVRRVLDLRGQLWRQVREITVDLGSDVRLARKLEIRRELEAINRNRDRLHEELAKL
notes: ATP-dependent phosphofructokinase of Trypanosoma brucei; 53-kDa subunit; residues up to 486 are named in the structure; The N-terminal His6 tag is stated for the SPR experiments and 'His-tagged TbPFK' for the kinetics; also called TbPFK; T. brucei PFK

Assays:
[1] = target: T1, LiPFK (Leishmania infantum phosphofructokinase); test: SPR steady state, His6-PFK captured on Ni-NTA chip; format: binding
Source text: SPR steady state, His6-PFK captured on Ni-NTA chip on LiPFK (Leishmania infantum phosphofructokinase)

[2] = target: T2, TcPFK (Trypanosoma cruzi phosphofructokinase); test: SPR steady state, His6-PFK captured on Ni-NTA chip; format: binding
Source text: SPR steady state, His6-PFK captured on Ni-NTA chip on TcPFK (Trypanosoma cruzi phosphofructokinase)

[3] = target: T3, TbPFK (Trypanosoma brucei phosphofructokinase); test: SPR steady state, His6-PFK captured on Ni-NTA chip; format: binding
Source text: SPR steady state, His6-PFK captured on Ni-NTA chip on TbPFK (Trypanosoma brucei phosphofructokinase)

[4] = substrate: Nc1nc2c(ncn2[C@@H]2O[C@H](COP(=O)(O)OP(=O)(O)OP(=O)(O)O)[C@@H](O)[C@H]2O)c(=O)[nH]1; test: pyruvate kinase-lactate dehydrogenase coupled assay, A340, sigmoidal fit; format: biochemical, Trypanosoma cruzi; details: 3 mM F6P, no AMP, 10 mM MgCl2, 100 mM KCl, pH 7.4, 25 °C
Source text: pyruvate kinase-lactate dehydrogenase coupled assay, A340, sigmoidal fit on TcPFK (Trypanosoma cruzi phosphofructokinase)

[5] = substrate: Nc1nc2c(ncn2[C@@H]2O[C@H](COP(=O)(O)OP(=O)(O)OP(=O)(O)O)[C@@H](O)[C@H]2O)c(=O)[nH]1; test: as above; format: biochemical, Trypanosoma brucei; details: 3 mM F6P, no AMP, 10 mM MgCl2, 100 mM KCl, pH 7.4, 25 °C
Source text: pyruvate kinase-lactate dehydrogenase coupled assay, A340, sigmoidal fit on TbPFK (Trypanosoma brucei phosphofructokinase)

[6] = target: the molecule itself; test: crystal structure; TbPFK at 6 mg/mL in gel filtration buffer with 1 mM F16BP, 1 mM AMP and 500 µM PFK inhibitor, hanging drop, 18 °C, 9.5% PEG 8000, 0.1 M sodium cacodylate pH 7.4; only AMP seen bound; two tetramers in the asymmetric unit

| Molecule | Kd [1] [µM] | Kd [2] [µM] | Kd [3] [µM] | other results |
| --- | --- | --- | --- | --- |
| Nc1ncnc2c1ncn2[C@@H]1O[C@H](COP(=O)(O)OP(=O)(O)O)[C@@H](O)[C@H]1O [ADP] | 160 | 730 | 560 | – |
| Nc1ncnc2c1ncn2[C@@H]1O[C@H](COP(=O)(O)O)[C@@H](O)[C@H]1O [AMP] | 2300 | 1040 | 470 | – |
| Nc1ncnc2c1ncn2[C@@H]1O[C@H](COP(=O)(O)OP(=O)(O)OP(=O)(O)O)[C@@H](O)[C@H]1O [ATP] | 16.8 | 35.4 | 15.8 | – |
| B1 | – | – | – | K0.5 [4]: 195 (14) μM; Vmax [4]: 63 µmol/min/mg; kcat [4]: 58.7 s⁻¹ |
| B2 | – | – | – | K0.5 [5]: 123 (8) μM; Vmax [5]: 38.3 µmol/min/mg; kcat [5]: 35.6 s⁻¹; stoichiometry N [6]: 4 |
